Laboratory results taken from ChEMBL document CHEMBL1135042, “Structure-activity relationships for analogues of the phenazine-based dual topoisomerase I/II inhibitor XR11576” (Bioorg Med Chem Lett, 2002).

What was measured:
NCI-H69 [1] = test: In vitro cytotoxicity against human small cell lung carcinoma H69/P.; type: functional, cell-based
NCI-H69 [2] = test: In vitro cytotoxicity against multi-drug resistant human small cell lung carcinoma H69/LX4.; type: functional, cell-based
[3] = Ratio of IC50 values against H69/P and […] cell lines.; type: functional

| Structure (SMILES) | IC50 (NCI-H69 [1]) | IC50 (NCI-H69 [2]) | Ratio [3] |
| --- | --- | --- | --- |
| CN(C)CCNC(=O)c1cc2ccccc2c2nc3ccccc3nc12 | 0.406 µM | 0.511 µM | 1.26 |
| CN(C)CCNC(=O)c1cc2cc(OCCN3CCOCC3)ccc2c2nc3ccccc3nc12 | 0.506 µM | 0.592 µM | 1.17 |
| CN(C)CCNC(=O)c1cccc2nc(-c3ccccc3)c(-c3ccccc3)nc12 | > 100 µM | > 100 µM | – |
| CN(C)CCNC(=O)c1cccc2ncc(-c3ccc4ccccc4c3)nc12 | 1.82 µM | 1.67 µM | 0.92 |
| CC/N=C(\S)Oc1ccc2c(c1)cc(C(=O)NCCN(C)C)c1nc3ccccc3nc12 | 0.519 µM | 0.583 µM | 1.12 |
| Cc1cccc2nc3c(nc12)c(C(=O)NCCN(C)C)cc1ccccc13 | 0.417 µM | 0.32 µM | 0.8 |
| CN(C)CCNC(=O)c1cc2cccc(N)c2c2nc3ccccc3nc12 | 0.259 µM | 0.345 µM | 1.33 |
| CN(C)CCNC(=O)c1cccc2ncc(-c3ccccc3)nc12 | 3.93 µM | 3.59 µM | 0.9 |
| CN(C)CCNC(=O)c1cc2cccc([N+](=O)[O-])c2c2nc3ccccc3nc12 | 0.458 µM | 0.584 µM | 1.3 |
| COc1ccc2c(c1)cc(C(=O)NCCN(C)C)c1nc3ccccc3nc12 | 0.282 µM | 0.358 µM | 1.3 |
| CN(C)CCNC(=O)c1cc2cc(OCc3ccccc3)ccc2c2nc3ccccc3nc12 | 1.22 µM | 1.58 µM | 1.29 |
| C#CCOc1ccc2c(c1)cc(C(=O)NCCN(C)C)c1nc3ccccc3nc12 | 0.435 µM | 0.613 µM | 1.4 |
| CN(C)CCNC(=O)c1cccc2nc3c(nc12)-c1cccc2cccc-3c12 | 0.35 µM | 0.33 µM | 0.93 |
| CN(C)CCNC(=O)c1cccc2ncc(-c3ccc([N+](=O)[O-])cc3)nc12 | 2.4 µM | 3.38 µM | 1.41 |
| CN(C)CCNC(=O)c1cc2cc(OC(=O)Nc3ccccc3)ccc2c2nc3ccccc3nc12 | 0.104 µM | 0.252 µM | 2.42 |
| CN(C)CCNC(=O)c1cc2cc(O)ccc2c2nc3ccccc3nc12 | 0.094 µM | 0.198 µM | 2.12 |
| COCCOc1ccc2c(c1)cc(C(=O)NCCN(C)C)c1nc3ccccc3nc12 | 0.445 µM | 0.545 µM | 1.23 |
| COc1cccc2c1ccc1nc3cccc(C(=O)N[C@@H](C)CN(C)C)c3nc12 | 0.02 µM | 0.02 µM | – |
| CN(C)CCNC(=O)c1cc2cc(OCCCO)ccc2c2nc3ccccc3nc12 | 0.523 µM | 2.03 µM | 3.87 |
